# Bridge positions count the residues as written; N and C are the ends. Peptide text beside a SMILES is read from it.
# Biological target: T1, IL17-RE-IL-17C (Homo sapiens, UniProt Q8NFR9+Q9P0M4)
# T1 sequence (Q9P0M4 whole entry): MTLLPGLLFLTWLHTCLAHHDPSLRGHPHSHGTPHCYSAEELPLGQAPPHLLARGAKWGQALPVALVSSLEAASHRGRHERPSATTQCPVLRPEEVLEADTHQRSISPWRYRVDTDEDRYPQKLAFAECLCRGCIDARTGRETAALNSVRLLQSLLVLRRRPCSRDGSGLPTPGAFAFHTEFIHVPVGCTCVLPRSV
# T1 sequence (Q8NFR9 whole entry): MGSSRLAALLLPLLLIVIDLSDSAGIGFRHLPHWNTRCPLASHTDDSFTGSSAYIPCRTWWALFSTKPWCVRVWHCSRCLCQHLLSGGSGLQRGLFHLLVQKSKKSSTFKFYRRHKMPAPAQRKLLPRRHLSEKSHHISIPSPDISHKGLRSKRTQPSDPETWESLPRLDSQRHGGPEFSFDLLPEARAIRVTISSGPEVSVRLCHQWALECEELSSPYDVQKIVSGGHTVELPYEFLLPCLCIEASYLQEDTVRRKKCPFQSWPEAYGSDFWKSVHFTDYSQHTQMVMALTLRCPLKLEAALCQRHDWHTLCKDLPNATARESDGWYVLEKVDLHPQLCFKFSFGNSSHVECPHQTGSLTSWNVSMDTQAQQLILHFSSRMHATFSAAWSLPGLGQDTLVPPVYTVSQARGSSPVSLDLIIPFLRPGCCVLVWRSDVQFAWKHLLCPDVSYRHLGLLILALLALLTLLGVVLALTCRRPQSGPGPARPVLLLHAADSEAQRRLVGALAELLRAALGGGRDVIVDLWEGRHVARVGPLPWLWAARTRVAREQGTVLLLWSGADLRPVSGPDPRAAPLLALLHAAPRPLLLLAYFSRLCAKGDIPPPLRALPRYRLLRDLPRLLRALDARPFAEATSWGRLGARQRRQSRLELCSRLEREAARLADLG
# Test: Inhibition of interleukin-17RE/biotinylated IL-17C protein-protein interaction (unknown origin) incubated for 1 hrs by competitive ELISA
# Format: protein-complex assay
row,Structure (SMILES),IC50
1,CC[C@@H](C)[C@@H]1NC(=O)[C@H](CCCNC(=N)N)NC(=O)[C@H](Cc2ccc(O)cc2)NC(=O)[C@H](Cc2ccc(O)cc2)NC(=O)[C@H](CCC(N)=O)NC(=O)[C@H](Cc2c[nH]cn2)NC(=O)[C@H](Cc2ccc(O)cc2)NC(=O)CSC[C@@H](C(=O)NCC(N)=O)NC(=O)CNC(=O)[C@H](CC(C)C)NC(=O)[C@H](CC(N)=O)NC(=O)CNC(=O)[C@H](Cc2ccc(O)cc2)NC(=O)[C@H](CC(C)C)NC1=O,5.6 nM
2,CC[C@H](C)[C@@H]1NC(=O)[C@H](CCCNC(=N)N)NC(=O)[C@H](Cc2ccc(O)cc2)NC(=O)[C@H](Cc2ccc(O)cc2)NC(=O)[C@H](CCC(=O)O)NC(=O)[C@H](Cc2c[nH]cn2)NC(=O)[C@H](Cc2ccc(O)cc2)NC(=O)CSC[C@@H](C(=O)NCC(N)=O)NC(=O)CNC(=O)[C@H](CC(C)C)NC(=O)[C@H](CCC(=O)O)NC(=O)CNC(=O)[C@H](Cc2ccc(O)cc2)NC(=O)[C@H](CC(C)C)NC1=O ({CH2CO}-YHEYYRILYGELGCG-NH2; thioether N-14),86 nM
3,CC(C)C[C@@H]1NC(=O)[C@H](CC(=O)O)NC(=O)CNC(=O)[C@H](Cc2ccc(O)cc2)NC(=O)[C@H](CC(C)C)NC(=O)[C@H](CO)NC(=O)[C@H](CCCNC(=N)N)NC(=O)[C@H](Cc2ccc(O)cc2)NC(=O)[C@H](CC(N)=O)NC(=O)[C@H](Cc2c[nH]cn2)NC(=O)[C@H](Cc2c[nH]cn2)NC(=O)[C@H](Cc2ccc(O)cc2)NC(=O)CSC[C@@H](C(=O)NCC(N)=O)NC(=O)CNC1=O ({CH2CO}-YHHNYRSLYGDLGCG-NH2; thioether N-14),> 30000 nM
4,CC(C)C[C@@H]1NC(=O)[C@H](CC(=O)O)NC(=O)CNC(=O)[C@H](Cc2ccc(O)cc2)NC(=O)[C@H](CC(C)C)NC(=O)[C@H](CO)NC(=O)[C@H](CCCNC(=N)N)NC(=O)[C@H](Cc2c[nH]cn2)NC(=O)[C@H](Cc2ccc(O)cc2)NC(=O)[C@H](Cc2c[nH]cn2)NC(=O)[C@H](Cc2c[nH]cn2)NC(=O)[C@H](Cc2ccc(O)cc2)NC(=O)CSC[C@@H](C(=O)NCC(N)=O)NC(=O)CNC1=O ({CH2CO}-YHHYHRSLYGDLGCG-NH2; thioether N-14),> 30000 nM
5,CC[C@H](C)[C@@H]1NC(=O)[C@H](CCCCN)NC(=O)[C@H](Cc2ccc(O)cc2)NC(=O)[C@H](Cc2ccc(O)cc2)NC(=O)[C@H](Cc2c[nH]cn2)NC(=O)[C@H](Cc2c[nH]cn2)NC(=O)[C@H](Cc2ccc(O)cc2)NC(=O)CSC[C@@H](C(=O)NCC(N)=O)NC(=O)CNC(=O)[C@H](CC(C)C)NC(=O)[C@H](CCC(=O)O)NC(=O)CNC(=O)[C@H](Cc2ccc(O)cc2)NC(=O)[C@H](CC(C)C)NC1=O ({CH2CO}-YHHYYKILYGELGCG-NH2; thioether N-14),116 nM
6,CC[C@H](C)[C@@H]1NC(=O)[C@H](CC(N)=O)NC(=O)[C@H](Cc2ccc(O)cc2)NC(=O)[C@H](Cc2ccc(O)cc2)NC(=O)[C@H](Cc2c[nH]cn2)NC(=O)[C@H](Cc2c[nH]cn2)NC(=O)[C@H](Cc2ccc(O)cc2)NC(=O)CSC[C@@H](C(=O)NCC(N)=O)NC(=O)CNC(=O)[C@H](CC(C)C)NC(=O)[C@H](CCC(=O)O)NC(=O)CNC(=O)[C@H](Cc2ccc(O)cc2)NC(=O)[C@H](CC(C)C)NC1=O ({CH2CO}-YHHYYNILYGELGCG-NH2; thioether N-14),2360 nM
7,CC(C)C[C@@H]1NC(=O)[C@H](C)NC(=O)[C@H](CCCNC(=N)N)NC(=O)[C@H](Cc2ccc(O)cc2)NC(=O)[C@H](Cc2ccc(O)cc2)NC(=O)[C@H](Cc2c[nH]cn2)NC(=O)[C@H](Cc2c[nH]cn2)NC(=O)[C@H](Cc2ccc(O)cc2)NC(=O)CSC[C@@H](C(=O)NCC(N)=O)NC(=O)CNC(=O)[C@H](CC(C)C)NC(=O)[C@H](CCC(=O)O)NC(=O)CNC(=O)[C@H](Cc2ccc(O)cc2)NC1=O ({CH2CO}-YHHYYRALYGELGCG-NH2; thioether N-14),254 nM
8,CC[C@H](C)[C@@H]1NC(=O)[C@H](CCCNC(=N)N)NC(=O)[C@H](Cc2ccc(O)cc2)NC(=O)[C@H](Cc2ccc(O)cc2)NC(=O)[C@H](Cc2c[nH]cn2)NC(=O)[C@H](Cc2c[nH]cn2)NC(=O)[C@H](Cc2ccc(O)cc2)NC(=O)CSC[C@@H](C(=O)NCC(N)=O)NC(=O)CNC(=O)[C@H](CC(C)C)NC(=O)[C@H](CCC(=O)O)NC(=O)CNC(=O)[C@H](Cc2ccc(O)cc2)NC(=O)[C@H](Cc2ccccc2)NC1=O ({CH2CO}-YHHYYRIFYGELGCG-NH2; thioether N-14),23300 nM
9,CC[C@H](C)[C@@H]1NC(=O)[C@H](CCCNC(=N)N)NC(=O)[C@H](Cc2ccc(O)cc2)NC(=O)[C@H](Cc2ccc(O)cc2)NC(=O)[C@H](Cc2c[nH]cn2)NC(=O)[C@H](Cc2c[nH]cn2)NC(=O)[C@H](Cc2ccc(O)cc2)NC(=O)CSC[C@@H](C(=O)NCC(N)=O)NC(=O)CNC(=O)[C@H](CC(C)C)NC(=O)[C@H](CC(=O)O)NC(=O)CNC(=O)[C@H](Cc2ccc(O)cc2)NC(=O)[C@H](CC(C)C)NC1=O ({CH2CO}-YHHYYRILYGDLGCG-NH2; thioether N-14),83 nM
10,CC[C@H](C)[C@@H]1NC(=O)[C@H](CCCNC(=N)N)NC(=O)[C@H](Cc2ccc(O)cc2)NC(=O)[C@H](Cc2ccc(O)cc2)NC(=O)[C@H](Cc2c[nH]cn2)NC(=O)[C@H](Cc2c[nH]cn2)NC(=O)[C@H](Cc2ccc(O)cc2)NC(=O)CSC[C@@H](C(=O)NCC(N)=O)NC(=O)CNC(=O)[C@H](CC(C)C)NC(=O)[C@H](CCCCN)NC(=O)CNC(=O)[C@H](Cc2ccc(O)cc2)NC(=O)[C@H](CC(C)C)NC1=O ({CH2CO}-YHHYYRILYGKLGCG-NH2; thioether N-14),73 nM
11,CC[C@H](C)[C@@H]1NC(=O)[C@H](CCCNC(=N)N)NC(=O)[C@H](Cc2ccc(O)cc2)NC(=O)[C@H](Cc2ccc(O)cc2)NC(=O)[C@H](Cc2c[nH]cn2)NC(=O)[C@H](Cc2c[nH]cn2)NC(=O)[C@H](Cc2ccc(O)cc2)NC(=O)CSC[C@@H](C(=O)NCC(N)=O)NC(=O)CNC(=O)[C@H](CC(C)C)NC(=O)[C@H](CC(N)=O)NC(=O)CNC(=O)[C@H](Cc2ccc(O)cc2)NC(=O)[C@H](CC(C)C)NC1=O ({CH2CO}-YHHYYRILYGNLGCG-NH2; thioether N-14),47 nM
12,CC[C@H](C)[C@@H]1NC(=O)[C@H](Cc2c[nH]cn2)NC(=O)[C@H](Cc2ccc(O)cc2)NC(=O)CSC[C@@H](C(=O)NCC(N)=O)NC(=O)CNC(=O)[C@H](CC(C)C)NC(=O)[C@H](CC(N)=O)NC(=O)CNC(=O)[C@H](Cc2ccc(O)cc2)NC(=O)[C@H](CC(C)C)NC(=O)[C@H](CO)NC(=O)[C@H](C)NC(=O)[C@H](Cc2ccc(O)cc2)NC(=O)[C@H](Cc2ccc(O)cc2)NC1=O ({CH2CO}-YHIYYASLYGNLGCG-NH2; thioether N-14),1.4 nM
13,CC[C@H](C)[C@@H]1NC(=O)[C@H](Cc2c[nH]cn2)NC(=O)[C@H](Cc2ccc(O)cc2)NC(=O)CSC[C@@H](C(=O)NCC(N)=O)NC(=O)CNC(=O)[C@H](CC(C)C)NC(=O)[C@H](CC(=O)O)NC(=O)CNC(=O)[C@H](Cc2ccc(O)cc2)NC(=O)[C@H](CC(C)C)NC(=O)[C@H](CO)NC(=O)[C@H](CCCNC(=N)N)NC(=O)[C@H](Cc2ccc(O)cc2)NC(=O)[C@H](Cc2ccc(O)cc2)NC1=O ({CH2CO}-YHIYYRSLYGDLGCG-NH2; thioether N-14),1.7 nM
14,CC[C@H](C)[C@@H]1NC(=O)[C@H](CCCNC(=N)N)NC(=O)[C@H](Cc2ccc(O)cc2)NC(=O)[C@H](Cc2ccc(O)cc2)NC(=O)[C@H](CCCCN)NC(=O)[C@H](Cc2c[nH]cn2)NC(=O)[C@H](Cc2ccc(O)cc2)NC(=O)CSC[C@@H](C(=O)NCC(N)=O)NC(=O)CNC(=O)[C@H](CC(C)C)NC(=O)[C@H](CCC(=O)O)NC(=O)CNC(=O)[C@H](Cc2ccc(O)cc2)NC(=O)[C@H](CC(C)C)NC1=O ({CH2CO}-YHKYYRILYGELGCG-NH2; thioether N-14),89 nM
15,CC[C@H](C)[C@@H]1NC(=O)[C@H](CCCNC(=N)N)NC(=O)[C@H](Cc2ccc(O)cc2)NC(=O)[C@H](Cc2ccc(O)cc2)NC(=O)[C@H](CC(C)C)NC(=O)[C@H](Cc2c[nH]cn2)NC(=O)[C@H](Cc2ccc(O)cc2)NC(=O)CSC[C@@H](C(=O)NCC(N)=O)NC(=O)CNC(=O)[C@H](CC(C)C)NC(=O)[C@H](CCC(=O)O)NC(=O)CNC(=O)[C@H](Cc2ccc(O)cc2)NC(=O)[C@H](CC(C)C)NC1=O ({CH2CO}-YHLYYRILYGELGCG-NH2; thioether N-14),68 nM
16,CC[C@H](C)[C@@H]1NC(=O)[C@H](CCCNC(=N)N)NC(=O)[C@H](Cc2ccc(O)cc2)NC(=O)[C@H](Cc2ccc(O)cc2)NC(=O)[C@H](CCC(N)=O)NC(=O)[C@H](Cc2c[nH]cn2)NC(=O)[C@H](Cc2ccc(O)cc2)NC(=O)CSC[C@@H](C(=O)NCC(N)=O)NC(=O)CNC(=O)[C@H](CC(C)C)NC(=O)[C@H](CCC(=O)O)NC(=O)CNC(=O)[C@H](Cc2ccc(O)cc2)NC(=O)[C@H](CC(C)C)NC1=O ({CH2CO}-YHQYYRILYGELGCG-NH2; thioether N-14),15 nM

# From ChEMBL document CHEMBL5614375, “PepExplainer: An explainable deep learning model for selection-based macrocyclic peptide bioactivity prediction and optimization” (Eur J Med Chem, 2024)
